Assay results taken from PubChem BioAssay (NCI).
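Cultured in 96-well plates, cells were exposed to test compound for 48 hours across five concentrations. Here, GI50 denotes the concentration required for 50% inhibition of growth. At the TGI there is no net growth.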

Tests used:
Experiment in all cases: growth of human tumour cells (NCI), 48 h
IGROV1 ovarian = tested on: IGROV1 ovarian
T-47D breast = tested on: T-47D breast
ACHN renal = tested on: ACHN renal
HCT-15 colon = tested on: HCT-15 colon
EKVX NSCLC = tested on: EKVX NSCLC
MOLT-4 leukemia = tested on: MOLT-4 leukemia
SW-620 colon = tested on: SW-620 colon
SN12C renal = tested on: SN12C renal
HS 578T breast = tested on: HS 578T breast
PC-3 prostate = tested on: PC-3 prostate
KM12 colon = tested on: KM12 colon
SNB-75 CNS = tested on: SNB-75 CNS
CAKI-1 renal = tested on: CAKI-1 renal
U251 CNS = tested on: U251 CNS
M14 melanoma = tested on: M14 melanoma
A549 NSCLC = tested on: A549 NSCLC
MDA-MB-468 breast = tested on: MDA-MB-468 breast
SF-539 CNS = tested on: SF-539 CNS
UACC-62 melanoma = tested on: UACC-62 melanoma
A498 renal = tested on: A498 renal
SF-295 CNS = tested on: SF-295 CNS
MALME-3M melanoma = tested on: MALME-3M melanoma
OVCAR-8 ovarian = tested on: OVCAR-8 ovarian
NCI-H226 lung = tested on: NCI-H226 lung
OVCAR-3 ovarian = tested on: OVCAR-3 ovarian
SK-MEL-28 melanoma = tested on: SK-MEL-28 melanoma
BT-549 breast = tested on: BT-549 breast

Cc1cc(C(F)(F)F)ccc1C(=O)Nc1sc2c(c1C#N)CCC(=O)C2
GI50 (IGROV1 ovarian): 3420 nM | TGI (IGROV1 ovarian): 13500 nM | GI50 (T-47D breast): 453 nM | TGI (T-47D breast): 2520 nM | GI50 (ACHN renal): 1090 nM | TGI (ACHN renal): 2570 nM | GI50 (HCT-15 colon): 552 nM | TGI (HCT-15 colon): 2360 nM | GI50 (EKVX NSCLC): 2630 nM | TGI (EKVX NSCLC): 12000 nM | GI50 (MOLT-4 leukemia): 619 nM | TGI (MOLT-4 leukemia): 12300 nM | GI50 (SW-620 colon): 504 nM | TGI (SW-620 colon): 2570 nM | GI50 (SN12C renal): 1640 nM | TGI (SN12C renal): 10900 nM | GI50 (HS 578T breast): 2240 nM | TGI (HS 578T breast): 22600 nM | GI50 (PC-3 prostate): 333 nM | TGI (PC-3 prostate): 3280 nM | GI50 (KM12 colon): 1080 nM | TGI (KM12 colon): 5000 nM | GI50 (SNB-75 CNS): 1030 nM | TGI (SNB-75 CNS): 6740 nM | GI50 (CAKI-1 renal): 1320 nM | TGI (CAKI-1 renal): 2950 nM | GI50 (U251 CNS): 2250 nM | TGI (U251 CNS): 13200 nM | GI50 (M14 melanoma): 1390 nM | TGI (M14 melanoma): 3610 nM | GI50 (A549 NSCLC): 3420 nM | TGI (A549 NSCLC): 23100 nM | GI50 (MDA-MB-468 breast): 1540 nM | TGI (MDA-MB-468 breast): 5040 nM | GI50 (SF-539 CNS): 496 nM | TGI (SF-539 CNS): 1900 nM | GI50 (UACC-62 melanoma): 1220 nM | TGI (UACC-62 melanoma): 2670 nM | GI50 (A498 renal): 23200 nM | TGI (A498 renal): 93500 nM | GI50 (SF-295 CNS): 2010 nM | TGI (SF-295 CNS): 5910 nM | GI50 (MALME-3M melanoma): 1450 nM | TGI (MALME-3M melanoma): 3010 nM | GI50 (OVCAR-8 ovarian): 1800 nM | TGI (OVCAR-8 ovarian): 27300 nM | GI50 (NCI-H226 lung): 2830 nM | TGI (NCI-H226 lung): 18500 nM | GI50 (OVCAR-3 ovarian): 1400 nM | TGI (OVCAR-3 ovarian): 3240 nM | GI50 (SK-MEL-28 melanoma): 1240 nM | TGI (SK-MEL-28 melanoma): 2620 nM | GI50 (BT-549 breast): 591 nM | TGI (BT-549 breast): 3040 nM
